According to patent US6462016B1 (Shiseido Company, Ltd., priority 1995, dated 2002):
pKd: −log10 of the molar value.

Tests used:
[1] = target: T1, maxadilan receptor in crude membrane fraction from the brain of a human being (Homo sapiens, UniProt P41586); experiment: Binding test (tissue): 125I-Max, human brain crude membrane fraction
T1 construct: Likewise, crude membrane fractions were prepared; from tissue; host or cells: human brain, crude membrane fraction
T1 sequence (P41586 21-468): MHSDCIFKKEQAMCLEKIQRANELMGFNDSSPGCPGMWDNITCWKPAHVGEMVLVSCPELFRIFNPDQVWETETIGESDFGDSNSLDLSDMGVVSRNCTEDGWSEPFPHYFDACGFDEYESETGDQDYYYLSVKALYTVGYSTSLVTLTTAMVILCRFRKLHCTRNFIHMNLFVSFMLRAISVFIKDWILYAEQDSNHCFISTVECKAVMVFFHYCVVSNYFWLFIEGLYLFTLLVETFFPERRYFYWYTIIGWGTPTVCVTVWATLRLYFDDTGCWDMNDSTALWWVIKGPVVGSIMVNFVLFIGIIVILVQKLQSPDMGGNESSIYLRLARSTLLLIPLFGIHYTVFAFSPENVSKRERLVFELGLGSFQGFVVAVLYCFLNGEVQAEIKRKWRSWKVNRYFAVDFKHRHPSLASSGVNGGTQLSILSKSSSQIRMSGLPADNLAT
Method: (§1) Likewise, crude membrane fractions were prepared, respectively, from the brain, liver, pancreas, spleen, aorta and kidney of a rabbit, and the brains of a rat, a mouse, cattle and a human being.
(§2) After completion of the reaction, ^125I-Max bound to the membrane was separated by subjecting the resultant incubation matter to suction filtration using a GF/C glass filter (Whatman GF/C), and the radioactivity of the glass filter after being dried was measured by a γ-counter.

[2] = target: T2, maxadilan receptor in crude membrane fraction from the rat brain (Rattus norvegicus, UniProt P32215); experiment: Binding test (tissue): 125I-Max, rat brain crude membrane fraction
T2 construct: Likewise, crude membrane fractions were prepared; from tissue; host or cells: rat brain, crude membrane fraction
T2 sequence (P32215 20-523): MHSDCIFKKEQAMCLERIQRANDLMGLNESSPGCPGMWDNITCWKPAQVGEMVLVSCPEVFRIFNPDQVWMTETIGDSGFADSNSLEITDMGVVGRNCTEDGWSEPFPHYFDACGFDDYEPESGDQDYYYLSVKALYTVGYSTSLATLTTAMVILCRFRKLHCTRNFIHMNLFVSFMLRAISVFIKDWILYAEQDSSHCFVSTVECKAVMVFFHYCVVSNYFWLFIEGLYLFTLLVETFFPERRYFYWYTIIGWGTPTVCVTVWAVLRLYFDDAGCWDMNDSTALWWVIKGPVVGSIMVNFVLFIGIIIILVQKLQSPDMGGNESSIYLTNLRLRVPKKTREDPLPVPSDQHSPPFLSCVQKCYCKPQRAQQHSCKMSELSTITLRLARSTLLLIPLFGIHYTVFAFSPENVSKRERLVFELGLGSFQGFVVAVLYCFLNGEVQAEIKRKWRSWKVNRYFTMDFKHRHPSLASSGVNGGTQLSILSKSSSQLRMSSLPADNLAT
Method: as §1, §2

[3] = target: maxadilan receptor in crude membrane fraction from the rabbit spleen; experiment: Binding test (tissue): 125I-Max, rabbit spleen crude membrane fraction; conditions: read-out: dissociation constant (Kd)
Method: as §1, §2

[4] = test system: NBf1 cell; experiment: cAMP production in NBf1 cell; assay type: cell-based, human
[5] = test system: rat adrenal medulla melanocytoma PC-12; assay type: cell-based
[6] = test system: rabbit skin; assay type: in vivo
[7] = target: T3, maxadilan receptor in crude membrane fraction from the cattle brain (Bos taurus, UniProt Q29627); experiment: Binding test (tissue): 125I-Max, cattle brain crude membrane fraction
T3 construct: Likewise, crude membrane fractions were prepared; from tissue; host or cells: cattle brain, crude membrane fraction
T3 sequence (Q29627 38-513): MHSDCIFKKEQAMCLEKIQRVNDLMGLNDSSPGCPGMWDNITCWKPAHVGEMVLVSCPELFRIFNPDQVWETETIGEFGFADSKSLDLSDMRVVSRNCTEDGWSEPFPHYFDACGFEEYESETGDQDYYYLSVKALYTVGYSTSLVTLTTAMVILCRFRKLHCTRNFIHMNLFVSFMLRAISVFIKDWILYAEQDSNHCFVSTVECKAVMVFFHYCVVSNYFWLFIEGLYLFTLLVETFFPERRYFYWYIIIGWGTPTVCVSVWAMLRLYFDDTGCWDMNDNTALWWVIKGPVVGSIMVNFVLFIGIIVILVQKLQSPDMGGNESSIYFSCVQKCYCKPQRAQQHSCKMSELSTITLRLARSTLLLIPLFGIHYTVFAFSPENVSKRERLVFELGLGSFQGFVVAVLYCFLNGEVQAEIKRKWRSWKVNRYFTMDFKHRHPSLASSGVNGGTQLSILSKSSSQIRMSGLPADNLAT
Method: as §1, §2

[8] = test system: rat pancreas smooth muscle MILE cell; experiment: cAMP production in MILE cell; assay type: cell-based
[9] = target: T4, maxadilan receptor in crude membrane fraction from the mouse brain (Mus musculus, UniProt P70205); experiment: Binding test (tissue): 125I-Max, mouse brain crude membrane fraction
T4 construct: Likewise, crude membrane fractions were prepared; from tissue; host or cells: mouse brain, crude membrane fraction
T4 sequence (P70205 21-496): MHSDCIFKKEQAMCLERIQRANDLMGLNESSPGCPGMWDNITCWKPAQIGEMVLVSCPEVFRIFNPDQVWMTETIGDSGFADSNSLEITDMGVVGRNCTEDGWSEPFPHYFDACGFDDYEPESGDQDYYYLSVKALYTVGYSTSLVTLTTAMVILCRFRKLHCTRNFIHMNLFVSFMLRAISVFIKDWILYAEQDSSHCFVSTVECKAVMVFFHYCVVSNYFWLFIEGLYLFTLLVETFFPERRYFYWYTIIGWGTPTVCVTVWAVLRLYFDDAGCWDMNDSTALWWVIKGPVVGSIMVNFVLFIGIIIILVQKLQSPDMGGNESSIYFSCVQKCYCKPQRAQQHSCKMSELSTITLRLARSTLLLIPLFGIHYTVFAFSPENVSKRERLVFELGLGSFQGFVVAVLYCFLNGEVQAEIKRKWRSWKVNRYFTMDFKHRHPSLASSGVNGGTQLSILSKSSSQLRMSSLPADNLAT
Method: as §1, §2

maxadilan
specific binding to crude membrane fraction [1]: specific binding of Max is also recognized | maximum binding amount (Bmax) [2]: 68 fmol/mg | pKd [3]: 10.26 | cAMP production [4]: likewise observed | cAMP production ([5]; PC-12 cell (1×10^6), 37° C. 10 minutes): significantly promotes cAMP production | time course of cAMP production after stimulation ([5]; PC-12 cell, 100 nM maxadilan, 37° C., various time): conducted in an instant | Erythema formation activity ([6]; 50 μl dilutions at various concentrations intracutaneously into white rabbits, observed 30 minutes and 2 hours after injection): 10^−12 | erythema formation action (in words) ([6]; intracutaneous injection, rabbit): superior to that of natural maxadilan | maximum binding amount (Bmax) [7]: 17 fmol/mg | specific binding to crude membrane fraction [7]: specific binding of Max is also recognized | cAMP production [8]: likewise observed | maximum binding amount (Bmax) [9]: 53 fmol/mg
